Source: patent US11178873B2, “Cyclic N-carboxamide compounds useful as herbicides” (FMC CORPORATION, priority 2015, dated 2021)

Tests used:
Format in all cases: in vivo
[1] = system: foxtail, giant (giant foxtail, Setaria faberii); experiment: Test A preemergence, foxtail, giant; conditions: 0 to 100 scale, 0 no effect, 100 complete control
Description: (§1) Seeds of plant species selected from barnyardgrass (Echinochloa crus-galli), crabgrass, large (large crabgrass, Digitaria sanguinalis), kochia (Kochia scoparia), ragweed (common ragweed, Ambrosia elatior), morningglory (Ipomoea spp.), velvetleaf (Abutilon theophrasti), ryegrass, Italian (Italian ryegrass, Lolium multiflorum), foxtail, giant (giant foxtail, Setaria faberii), wheat (Triticum aestivum), corn (Zea mays), and pigweed (Amaranthus retroflexus), were planted into a blend of loam soil and sand and treated preemergence with a directed soil spray using test chemicals formulated in a non-phytotoxic solvent mixture which included a surfactant. At the same time, plants selected from these crop and weed species and also blackgrass (Alopecurus myosuroides), and galium (catchweed bedstraw, Galium aparine), were planted in pots containing the same blend of loam soil and sand and treated with postemergence applications of test chemicals formulated in the same manner. Plants ranged in height from 2 to 10 cm and were in the one- to two-leaf stage for the postemergence treatment. Treated plants and untreated controls were maintained in a greenhouse for approximately 10 d, after which time all treated plants were compared to untreated controls and visually evaluated for injury. Plant response ratings, summarized in Table A, are based on a 0 to 100 scale where 0 is no effect and 100 is complete control. A dash (-) response means no test result.

[2] = system: ryegrass, Italian (Italian ryegrass, Lolium multiflorum); experiment: Test A preemergence, ryegrass, Italian; conditions: 0 to 100 scale, 0 no effect, 100 complete control
Description: as §1

[3] = system: ryegrass, Italian (Italian ryegrass, Lolium multiflorum); experiment: Test A postemergence, ryegrass, Italian; conditions: 0 to 100 scale, 0 no effect, 100 complete control
Description: as §1

[4] = system: ragweed (common ragweed, Ambrosia elatior); experiment: Test A postemergence, ragweed; conditions: 0 to 100 scale, 0 no effect, 100 complete control
Description: as §1

[5] = system: ragweed (common ragweed, Ambrosia elatior); experiment: Test A preemergence, ragweed; conditions: 0 to 100 scale, 0 no effect, 100 complete control
Description: as §1

[6] = system: wheat (Triticum aestivum); experiment: Test A postemergence, wheat; conditions: 0 to 100 scale, 0 no effect, 100 complete control
Description: as §1

[7] = system: galium (catchweed bedstraw, Galium aparine); experiment: Test A postemergence, galium; conditions: 0 to 100 scale, 0 no effect, 100 complete control
Description: as §1

[8] = system: foxtail, giant (giant foxtail, Setaria faberii); experiment: Test A postemergence, foxtail, giant; conditions: 0 to 100 scale, 0 no effect, 100 complete control
Description: as §1

[9] = system: barnyardgrass (Echinochloa crus-galli); experiment: Test B flooded paddy test, barnyardgrass; conditions: Flood, 1000 g ai/ha; scale 0 to 100 (0 no effect, 100 complete control); 13 to 15 d
Experimental: (§2) Plant species in the flooded paddy test selected from rice (Oryza sativa), sedge, umbrella (small-flower umbrella sedge, Cyperus difformis), ducksalad (Heteranthera limosa), and barnyardgrass (Echinochloa crus-galli) were grown to the 2-leaf stage for testing. At time of treatment, test pots were flooded to 3 cm above the soil surface, treated by application of test compounds directly to the paddy water, and then maintained at that water depth for the duration of the test. Treated plants and controls were maintained in a greenhouse for 13 to 15 d, after which time all species were compared to controls and visually evaluated. Plant response ratings, summarized in Table B, are based on a scale of 0 to 100 where 0 is no effect and 100 is complete control. A dash (-) response means no test result.

corn (Zea mays) = experiment: Test A postemergence, corn; conditions: 0 to 100 scale, 0 no effect, 100 complete control
Description: as §1

[10] = system: pigweed (Amaranthus retroflexus); experiment: Test A postemergence, pigweed; conditions: 0 to 100 scale, 0 no effect, 100 complete control
Description: as §1

[11] = system: sedge, umbrella (small-flower umbrella sedge, Cyperus difformis); experiment: Test B flooded paddy test, sedge, umbrella; conditions: Flood, 1000 g ai/ha; scale 0 to 100 (0 no effect, 100 complete control); 13 to 15 d
Experimental: as §2

[12] = system: barnyardgrass (Echinochloa crus-galli); experiment: Test A preemergence, barnyardgrass; conditions: 0 to 100 scale, 0 no effect, 100 complete control
Description: as §1

[13] = system: blackgrass (Alopecurus myosuroides); experiment: Test A postemergence, blackgrass; conditions: 0 to 100 scale, 0 no effect, 100 complete control
Description: as §1

[14] = system: barnyardgrass (Echinochloa crus-galli); experiment: Test A postemergence, barnyardgrass; conditions: 0 to 100 scale, 0 no effect, 100 complete control
Description: as §1

kochia (Kochia scoparia) [15] = experiment: Test A preemergence, kochia; conditions: 0 to 100 scale, 0 no effect, 100 complete control
Description: as §1

[16] = system: pigweed (Amaranthus retroflexus); experiment: Test A preemergence, pigweed; conditions: 0 to 100 scale, 0 no effect, 100 complete control
Description: as §1

[17] = system: ducksalad (Heteranthera limosa); experiment: Test B flooded paddy test, ducksalad; conditions: Flood, 1000 g ai/ha; scale 0 to 100 (0 no effect, 100 complete control); 13 to 15 d
Experimental: as §2

kochia (Kochia scoparia) [18] = experiment: Test A postemergence, kochia; conditions: 0 to 100 scale, 0 no effect, 100 complete control
Description: as §1

rice (Oryza sativa) = experiment: Test B flooded paddy test, rice; conditions: Flood, 1000 g ai/ha; scale 0 to 100 (0 no effect, 100 complete control); 13 to 15 d
Experimental: as §2

With `O=C1NCC(c2ccccc2)N1C(=O)Nc1ccccc1F` (stereo not shown) [Compound 5] the “Plant response rating, Foxtail, Giant” value ([1]; 125 g ai/ha) was 0, the “Plant response rating, Foxtail, Giant” value ([1]; 500 g ai/ha) was 0 and the “Plant response rating, Ryegrass, Italian” value ([2]; 125 g ai/ha) was 0. For the same compound, the “Plant response rating, Ryegrass, Italian” value ([2]; 500 g ai/ha) was 0, the “Plant response rating, Ryegrass, Italian” value ([3]; 125 g ai/ha) was 0 and the “Plant response rating, Ryegrass, Italian” value ([3]; 500 g ai/ha) was 0. The “Plant response rating, Ragweed” value ([4]; 125 g ai/ha) was 0, the “Plant response rating, Ragweed” value ([4]; 500 g ai/ha) was 0 and the “Plant response rating, Ragweed” value ([5]; 125 g ai/ha) was 0. For the same compound, the “Plant response rating, Ragweed” value ([5]; 500 g ai/ha) was 0, the “Plant response rating, Wheat” value ([6]; 125 g ai/ha) was 0 and the “Plant response rating, Wheat” value ([6]; 500 g ai/ha) was 0. The “Plant response rating, Galium” value ([7]; 125 g ai/ha) was 0, the “Plant response rating, Galium” value ([7]; 500 g ai/ha) was 0 and the “Plant response rating, Foxtail, Giant” value ([8]; 125 g ai/ha) was 0. The “Plant response rating, Foxtail, Giant” value ([8]; 500 g ai/ha) was 0, the “Plant response rating, Barnyardgrass” value [9] was 0 and the “Plant response rating, Corn” value (corn (Zea mays); 125 g ai/ha) was 0. For the same compound, the “Plant response rating, Corn” value (corn (Zea mays); 500 g ai/ha) was 0, the “Plant response rating, Pigweed” value ([10]; 125 g ai/ha) was 0 and the “Plant response rating, Pigweed” value ([10]; 500 g ai/ha) was 0. The “Plant response rating, Sedge, Umbrella” value [11] was 0, the “Plant response rating, Barnyardgrass” value ([12]; 125 g ai/ha) was 0 and the “Plant response rating, Barnyardgrass” value ([12]; 500 g ai/ha) was 0. The “Plant response rating, Blackgrass” value ([13]; 125 g ai/ha) was 0, the “Plant response rating, Blackgrass” value ([13]; 500 g ai/ha) was 0 and the “Plant response rating, Barnyardgrass” value ([14]; 125 g ai/ha) was 0. For the same compound, the “Plant response rating, Barnyardgrass” value ([14]; 500 g ai/ha) was 0, the “Plant response rating, Kochia” value (kochia (Kochia scoparia) [15]; 125 g ai/ha) was 0 and the “Plant response rating, Kochia” value (kochia (Kochia scoparia) [15]; 500 g ai/ha) was 0. The “Plant response rating, Pigweed” value ([16]; 125 g ai/ha) was 0, the “Plant response rating, Pigweed” value ([16]; 500 g ai/ha) was 0 and the “Plant response rating, Ducksalad” value [17] was 90. For the same compound, the “Plant response rating, Kochia” value (kochia (Kochia scoparia) [18]; 125 g ai/ha) was 0, the “Plant response rating, Kochia” value (kochia (Kochia scoparia) [18]; 500 g ai/ha) was 0 and the “Plant response rating, Rice” value (rice (Oryza sativa)) was 0.
For `O=C1NCC(c2ccc(F)c(F)c2)N1C(=O)Nc1ccccc1` (stereo not shown) [Compound 7], the “Plant response rating, Foxtail, Giant” value ([1]; 125 g ai/ha) was 0, the “Plant response rating, Foxtail, Giant” value ([1]; 500 g ai/ha) was 0 and the “Plant response rating, Ryegrass, Italian” value ([2]; 125 g ai/ha) was 0. For the same compound, the “Plant response rating, Ryegrass, Italian” value ([2]; 500 g ai/ha) was 0, the “Plant response rating, Ryegrass, Italian” value ([3]; 125 g ai/ha) was 0 and the “Plant response rating, Ryegrass, Italian” value ([3]; 500 g ai/ha) was 0. For the same compound, the “Plant response rating, Ragweed” value ([4]; 125 g ai/ha) was 0, the “Plant response rating, Ragweed” value ([4]; 500 g ai/ha) was 0 and the “Plant response rating, Ragweed” value ([5]; 125 g ai/ha) was 0. The “Plant response rating, Ragweed” value ([5]; 500 g ai/ha) was 0, the “Plant response rating, Wheat” value ([6]; 125 g ai/ha) was 0 and the “Plant response rating, Wheat” value ([6]; 500 g ai/ha) was 0. The “Plant response rating, Galium” value ([7]; 125 g ai/ha) was 0, the “Plant response rating, Galium” value ([7]; 500 g ai/ha) was 0 and the “Plant response rating, Foxtail, Giant” value ([8]; 125 g ai/ha) was 0. For the same compound, the “Plant response rating, Foxtail, Giant” value ([8]; 500 g ai/ha) was 0, the “Plant response rating, Barnyardgrass” value [9] was 0 and the “Plant response rating, Corn” value (corn (Zea mays); 125 g ai/ha) was 0. The “Plant response rating, Corn” value (corn (Zea mays); 500 g ai/ha) was 0, the “Plant response rating, Pigweed” value ([10]; 125 g ai/ha) was 0 and the “Plant response rating, Pigweed” value ([10]; 500 g ai/ha) was 0. For the same compound, the “Plant response rating, Sedge, Umbrella” value [11] was 0, the “Plant response rating, Barnyardgrass” value ([12]; 125 g ai/ha) was 0 and the “Plant response rating, Barnyardgrass” value ([12]; 500 g ai/ha) was 0. For the same compound, the “Plant response rating, Blackgrass” value ([13]; 125 g ai/ha) was 0, the “Plant response rating, Blackgrass” value ([13]; 500 g ai/ha) was 0 and the “Plant response rating, Barnyardgrass” value ([14]; 125 g ai/ha) was 0. For the same compound, the “Plant response rating, Barnyardgrass” value ([14]; 500 g ai/ha) was 0, the “Plant response rating, Kochia” value (kochia (Kochia scoparia) [15]; 125 g ai/ha) was 0 and the “Plant response rating, Kochia” value (kochia (Kochia scoparia) [15]; 500 g ai/ha) was 0. For the same compound, the “Plant response rating, Pigweed” value ([16]; 125 g ai/ha) was 0, the “Plant response rating, Pigweed” value ([16]; 500 g ai/ha) was 0 and the “Plant response rating, Ducksalad” value [17] was 0. The “Plant response rating, Kochia” value (kochia (Kochia scoparia) [18]; 125 g ai/ha) was 0, the “Plant response rating, Kochia” value (kochia (Kochia scoparia) [18]; 500 g ai/ha) was 0 and the “Plant response rating, Rice” value (rice (Oryza sativa)) was 0.
For `CN1CC(c2ccc(C(F)(F)F)cc2)N(C(=O)Nc2cccc(F)c2F)C1=O` (stereo not shown) [Compound 14], the “Plant response rating, Foxtail, Giant” value ([1]; 1000 g ai/ha) was 70, the “Plant response rating, Ryegrass, Italian” value ([2]; 1000 g ai/ha) was 0 and the “Plant response rating, Ryegrass, Italian” value ([3]; 1000 g ai/ha) was 0. The “Plant response rating, Ragweed” value ([4]; 1000 g ai/ha) was 0, the “Plant response rating, Ragweed” value ([5]; 1000 g ai/ha) was 0 and the “Plant response rating, Wheat” value ([6]; 1000 g ai/ha) was 0. The “Plant response rating, Galium” value ([7]; 1000 g ai/ha) was 0, the “Plant response rating, Foxtail, Giant” value ([8]; 1000 g ai/ha) was 0 and the “Plant response rating, Corn” value (corn (Zea mays); 1000 g ai/ha) was 0. For the same compound, the “Plant response rating, Pigweed” value ([10]; 1000 g ai/ha) was 0, the “Plant response rating, Barnyardgrass” value ([12]; 1000 g ai/ha) was 20 and the “Plant response rating, Blackgrass” value ([13]; 1000 g ai/ha) was 0. For the same compound, the “Plant response rating, Barnyardgrass” value ([14]; 1000 g ai/ha) was 0, the “Plant response rating, Kochia” value (kochia (Kochia scoparia) [15]; 1000 g ai/ha) was 0 and the “Plant response rating, Pigweed” value ([16]; 1000 g ai/ha) was 0. For the same compound, the “Plant response rating, Kochia” value (kochia (Kochia scoparia) [18]; 1000 g ai/ha) was 0.
